Test results as given in the NIST ThermoML archive (doi:10.1021/je101317k).

Legend:
[1] = refractive index (other wavelength) (dimensionless); conditions: 101 kPa, Liquid, Wavelength=632.8 nm, Standard Abbe refractometry
[2] = refractive index (other wavelength) (dimensionless); xn = mol fraction of the nth substance listed; conditions: 101 kPa, Liquid, Wavelength=632.8 nm, Standard Abbe refractometry

COC(=O)OC [dimethyl carbonate]
[1]
Conditions	refractive index
277.78 K	1.3747
278.13 K	1.3745
279.18 K	1.374
280.25 K	1.3735
280.74 K	1.3733
281.69 K	1.3728
293.19 K	1.3676
294.27 K	1.3671
295.3 K	1.3666
296.34 K	1.3661
297.38 K	1.3656
298.4 K	1.3651
299.48 K	1.3647

COC(=O)OC [dimethyl carbonate] + CCCCCCCCC
Conditions	refractive index
[2], 281.69 K, x1 = 1	1.3728

CCCCCCCCCCCC [dodecane]
[1]
Conditions	refractive index
293.28 K	1.4203
294.33 K	1.4198
295.37 K	1.4194
296.54 K	1.4189
297.58 K	1.4184
298.65 K	1.418
299.72 K	1.4175

CCCCCCCCCCCC [dodecane] + COC(=O)OC
[2], 299.73 K
Conditions	refractive index
x2 = 0.103	1.414
x2 = 0.204	1.4106
x2 = 0.299	1.4071
x2 = 0.409	1.4028
x2 = 0.512	1.3983
x2 = 0.611	1.3934
x2 = 0.713	1.3875
x2 = 0.791	1.3823
x2 = 0.899	1.3739

CCCCCCCCC [nonane]
[1]
Conditions	refractive index
277.15 K	1.4116
278.19 K	1.4111
279.2 K	1.4106
279.71 K	1.4104
280.28 K	1.4101
281.69 K	1.4095

CCCCCCCCC [nonane] + COC(=O)OC
[2], 281.69 K
Conditions	refractive index
x2 = 0	1.4095
x2 = 0.105	1.4061
x2 = 0.201	1.4031
x2 = 0.305	1.3999
x2 = 0.405	1.3968
x2 = 0.505	1.3936
x2 = 0.596	1.3905
x2 = 0.706	1.3863
x2 = 0.8	1.3822
x2 = 0.888	1.3781
